Data: ChEMBL document CHEMBL3217739 (Medchemcomm, 2011)

Experiments:
[1] = system: Plasmodium falciparum; assay: Antimalarial activity against schizont stage of chloroquine-susceptible Plasmodium falciparum 3D7 infected in erythrocytes assessed as inhibition of [3H]hypoxanthine incorporation after 96 hrs by scintillation counting analysis; assay type: functional, organism-based
[2] = system: Plasmodium falciparum; assay: Antimalarial activity against schizont stage of atovaquone-resistant Plasmodium falciparum Tm90C2b infected in erythrocytes assessed as inhibition of [3H]hypoxanthine incorporation after 48 hrs by scintillation counting analysis; assay type: functional, organism-based
[3] = Chemical stability of the compound in aqueous phosphate buffer of pH 7.4 assessed as half life at 100 uM by HPLC analysis; assay type: physicochemical
[4] = system: Toxoplasma gondii; assay: Antitoxoplasma activity against Toxoplasma gondii RH tachyzoites isolated from human brain assessed as parasite growth inhibition after 24 hrs by hematoxylin-eosin staining based light microscopy; assay type: functional, organism-based
[5] = system: Toxoplasma gondii; assay: Antitoxoplasma activity against Toxoplasma gondii RH tachyzoites isolated from human brain assessed as parasite growth inhibition after 48 hrs by hematoxylin-eosin staining based light microscopy; assay type: functional, organism-based
[6] = system: Plasmodium falciparum; assay: Antimalarial activity against schizont stage of atovaquone-resistant Plasmodium falciparum Tm90C2b infected in erythrocytes assessed as inhibition of [3H]hypoxanthine incorporation after 96 hrs by scintillation counting analysis; assay type: functional, organism-based
[7] = system: Plasmodium falciparum; assay: Antimalarial activity against schizont stage of chloroquine-resistant Plasmodium falciparum W2 infected in erythrocytes assessed as inhibition of [3H]hypoxanthine incorporation after 96 hrs by scintillation counting analysis; assay type: functional, organism-based
[8] = system: Plasmodium falciparum; assay: Antimalarial activity against schizont stage of chloroquine-susceptible Plasmodium falciparum 3D7 infected in erythrocytes assessed as inhibition of [3H]hypoxanthine incorporation after 48 hrs by scintillation counting analysis; assay type: functional, organism-based
[9] = Cytotoxicity against rhesus monkey LLC-MK2 cells assessed as cell viability after 48 hrs by MTS assay; assay type: cell-based, Macaca mulatta; settings: read-out: LD50
[10] = Stability of the compound in RPMI medium assessed as half life at 100 uM by HPLC analysis in presence of 10% human serum; assay type: physicochemical; settings: RPMI medium with 10% human serum
[11] = system: Plasmodium falciparum; assay: Antimalarial activity against schizont stage of chloroquine-resistant Plasmodium falciparum W2 infected in erythrocytes assessed as inhibition of [3H]hypoxanthine incorporation after 48 hrs by scintillation counting analysis; assay type: functional, organism-based
[12] = Cytotoxicity against concanavalin A stimulated BALB/c mouse splenocytes after 72 hrs by alamar blue dye based plate reader analysis; assay type: cell-based, Splenocyte; settings: read-out: LD50
[13] = Therapeutic index, ratio of LD50 for concanavalin A stimulated BALB/c mouse splenocytes to IC50 for chloroquine-susceptible Plasmodium falciparum 3D7 infected in erythrocytes; assay type: cell-based; settings: read-out: Ratio LD50/IC50
[14] = system: Plasmodium falciparum; assay: Ratio of ciprofloxacin IC50 to compound IC50 for chloroquine-resistant Plasmodium falciparum W2 infected in erythrocytes after 96 hrs; assay type: functional
[15] = system: Plasmodium falciparum; assay: Ratio of ciprofloxacin IC50 to compound IC50 for chloroquine-susceptible Plasmodium falciparum 3D7 infected in erythrocytes after 48 hrs; assay type: functional
[16] = system: Plasmodium falciparum; assay: Ratio of ciprofloxacin IC50 to compound IC50 for atovaquone-resistant Plasmodium falciparum Tm90C2b infected in erythrocytes after 96 hrs; assay type: functional
[17] = system: Plasmodium falciparum; assay: Ratio of ciprofloxacin IC50 to compound IC50 for chloroquine-resistant Plasmodium falciparum W2 infected in erythrocytes after 48 hrs; assay type: functional
[18] = Therapeutic index, ratio of LD50 for rhesus monkey LLC-MK2 cells to IC50 for Toxoplasma gondii RH tachyzoites; assay type: cell-based; settings: read-out: Ratio LD50/IC50
[19] = system: Plasmodium falciparum; assay: Ratio of ciprofloxacin IC50 to compound IC50 for chloroquine-susceptible Plasmodium falciparum 3D7 infected in erythrocytes after 96 hrs; assay type: functional
[20] = system: Plasmodium falciparum; assay: Ratio of ciprofloxacin IC50 to compound IC50 for atovaquone-resistant Plasmodium falciparum Tm90C2b infected in erythrocytes after 48 hrs; assay type: functional

SMILES | IC50 [1] [nM] | IC50 ([2]; read-out: IC50) [nM] | half-life at 100 µM [3] [h] | IC50 [4] [nM] | IC50 [5] [nM] | IC50 [6] [nM] | IC50 [7] [nM] | IC50 [8] [nM] | CC50 at 48 h [9] [nM] | half-life at 100 µM [10] [h] | IC50 [11] [nM] | CC50 at 72 h [12] [nM] | further results
CCOC(=O)c1cn(C2CC2)c2cc(N3CCN(Cc4ccccc4)CC3)c(F)cc2c1=O | 320 | 2560 | > 76 | 1700 | 1240 | 2350 | 490 | 1080 | > 30000 | > 76 | 1610 | 57000 | –
CCOC(=O)c1cn(C2CC2)c2cc(N3CCN(CCC45CC6CC(CC(C6)C4)C5)CC3)c(F)cc2c1=O | 410 | 2460 | > 76 | 920 | 460 | 2230 | 710 | 1000 | 27800 | > 76 | 2060 | > 100000 | selectivity ratio [13]: > 100; Ratio IC50 [14]: 7; Ratio IC50 [15]: 47; Ratio IC50 [16]: 7; Ratio IC50 [17]: 60; selectivity ratio [18]: > 60; Ratio IC50 [19]: 31; Ratio IC50 [20]: 29
O=C1C(O)=C([C@H]2CC[C@H](c3ccc(Cl)cc3)CC2)C(=O)c2ccccc21 [ATOVAQUONE] | 1.9 | > 10000 | – | – | – | 388 | 2 | 2.3 | – | – | 3.9 | – | –
CCOC(=O)c1cn(C2CC2)c2cc(N3CCNCC3)c(F)cc2c1=O [CIPROFLOXACIN ETHYL ESTER] | 890 | 3560 | > 76 | 960 | 420 | 2270 | 840 | 2330 | > 30000 | > 76 | 3670 | > 40000 | –
O=C(O)c1cn(C2CC2)c2cc(N3CCNCC3)c(F)cc2c1=O [CIPROFLOXACIN] | 12800 | – | – | – | – | 15300 | 16800 | 47000 | – | – | 122000 | – | IC50 [2]: 71800 nM
CCc1nc(N)nc(N)c1-c1ccc(Cl)cc1 [PYRIMETHAMINE] | 2.1 | 14.6 | – | 240 | 120 | 1.4 | 2.3 | 13.3 | – | – | 10.4 | – | –
C=C[C@H]1CN2CC[C@H]1C[C@H]2[C@H](O)c1ccnc2ccc(OC)cc12 [QUININE] | 112 | 1070 | – | – | – | – | – | – | – | – | 917 | – | –
